Measurements reported in patent publication US6905841B2, “Enzymatic substrates for detecting Pseudomonas aeruginas” (Biomerieux S.A., priority 1999, dated 2005).
Read-outs that look alike come from different tables or passages of the source.

How the values were obtained:
β-alanine aminopeptidase [1] = details: Myroïdes spp.; 1 strain tested; read after 22 to 24 hours
β-alanine aminopeptidase [2] = details: Pseudomonas mendocina; 1 strain tested; read after 22 to 24 hours
β-alanine aminopeptidase [3] = details: Streptococcus pyogenes; 2 strains tested; read after 22 to 24 hours
β-alanine aminopeptidase [4] = details: Shewanella putrefaciens; 1 strain tested; read after 22 to 24 hours
β-alanine aminopeptidase [5] = test: APIZYM-type test strips with β-alanyl-β-naphthylamide; assay type: cell-based; details: Edwarsiella tarda; 2 strains
β-alanine aminopeptidase [6] = test: as above; assay type: cell-based; details: Comamonas acidovorans; five strains
β-alanine aminopeptidase [7] = test: as above; assay type: cell-based; details: Moraxella osloensis; 18 strains
β-alanine aminopeptidase [8] = test: as above; assay type: cell-based; details: Enterobacter sakazakii; five strains
β-alanine aminopeptidase [9] = test: as above; assay type: cell-based; details: Hafnia alvei; five strains
β-alanine aminopeptidase [10] = test: as above; assay type: cell-based; details: Moraxella bovis; 4 strains
β-alanine aminopeptidase [11] = test: as above; assay type: cell-based; details: Weeksella virosa; 4 strains
β-alanine aminopeptidase [12] = test: as above; assay type: cell-based; details: Pasteurella haemolytica; five strains

Compound: NCCC(=O)c1c(N)cc(Cl)c(O)c1Cl
- Number of negative results (β-alanine aminopeptidase [1]): 1
- Number positive results (β-alanine aminopeptidase [1]): 0
- Number of negative results (β-alanine aminopeptidase [2]): 0
- Number positive results (β-alanine aminopeptidase [2]): 1
- Number of negative results (β-alanine aminopeptidase [3]): 2
- Number positive results (β-alanine aminopeptidase [3]): 0
- Number of negative results (β-alanine aminopeptidase [4]): 1
- Number positive results (β-alanine aminopeptidase [4]): 0

Compound: β-alanyl-β-naphthylamide
- β-alanine aminopeptidase activity, result (β-alanine aminopeptidase [5]): negative
- β-alanine aminopeptidase activity, result (β-alanine aminopeptidase [6]): negative
- β-alanine aminopeptidase activity, result (β-alanine aminopeptidase [7]): negative
- β-alanine aminopeptidase activity, result (β-alanine aminopeptidase [8]): negative
- β-alanine aminopeptidase activity, result (β-alanine aminopeptidase [9]): negative
- β-alanine aminopeptidase activity, result (β-alanine aminopeptidase [10]): negative
- β-alanine aminopeptidase activity, result (β-alanine aminopeptidase [11]): negative
- β-alanine aminopeptidase activity, result (β-alanine aminopeptidase [12]): negative
